Patent US11542475B2, “3D microphysiologic system” (Northwestern University, priority 2014, dated 2023)

Legend:
IL8 = assay: ELISA of fallopian culture medium: IL8; type: cell-based, human; conditions: 10 nM E2, 7 days, conditioned medium, n=7
Procedure: Tissues were micro-dissected in alpha-MEM (Gibco, Carlsbad, Calif.) with 1% penicillin-streptomycin (Invitrogen, Carlsbad, Calif.). Individual fimbriae were separated into ˜50 mm^3 pieces. A portion of the tissue was fixed in 2% paraformaldehyde for use as an uncultured control. For optimization studies, fimbriae were cultured without matrix, encapsulated in 0.5% alginate, or encapsulated in 0.5% alginate with 1 mg/ml collagen and 0.1% fibronectin, as previously described for murine cultures (King et al. J Vis Exp. 2011.; herein incorporated by reference in its entirety). For subsequent treatments, 0.5% alginate encapsulated fimbriae were randomly assigned to treatment groups, with at least five fimbriae per condition, per patient, in a 24-well plate containing alpha-MEM and 1% penicillin-streptomycin. […] Prior to fixation, fimbriae were labeled with 10 μM bromodeoxyurine (BrdU, Sigma-Aldrich) for 24 hours to denote proliferating cells. […]
IL8, VEGF-A, and FGF2 were detected in fallopian culture medium by enzyme-linked immunosorbent assay for human IL8 (EMD Millipore, Billerica, Mass., USA), VEGF-A (RayBiotech, GA, USA), or FGF2 (Abcam) respectively using the manufacturers' protocols. […] Results were normalized to total protein content as determined by western blotting and Ponceau staining to account for difference in tissue size between treatment groups. […]

[1] = test system: human fallopian fimbriae FTE; assay: 3D human fimbriae culture: FTE proliferation by BrdU labeling; type: cell-based; conditions: insulin 5 μg/ml (ITS), H2O2 1 mM, E2 10 nM, n=6
Procedure: Tissues were micro-dissected in alpha-MEM (Gibco, Carlsbad, Calif.) with 1% penicillin-streptomycin (Invitrogen, Carlsbad, Calif.). Individual fimbriae were separated into ˜50 mm^3 pieces. A portion of the tissue was fixed in 2% paraformaldehyde for use as an uncultured control. For optimization studies, fimbriae were cultured without matrix, encapsulated in 0.5% alginate, or encapsulated in 0.5% alginate with 1 mg/ml collagen and 0.1% fibronectin, as previously described for murine cultures (King et al. J Vis Exp. 2011.; herein incorporated by reference in its entirety). For subsequent treatments, 0.5% alginate encapsulated fimbriae were randomly assigned to treatment groups, with at least five fimbriae per condition, per patient, in a 24-well plate containing alpha-MEM and 1% penicillin-streptomycin. […] Prior to fixation, fimbriae were labeled with 10 μM bromodeoxyurine (BrdU, Sigma-Aldrich) for 24 hours to denote proliferating cells. Fimbriae cultures were fixed (2% paraformaldehyde) followed by dehydration in ethanol and xylene, and embedment in paraffin.
Sections (5 μm) were cut and stained via hematoxylin and eosin for morphological analysis or immunohistochemistry was performed to localize proteins of interest as previously described (King et al. Endocr Relat Cancer. 2011. 18:627-42.; herein incorporated by reference in its entirety). Slides were rehydrated through an ethanol gradient, prior to 0.1M sodium citrate retrieval and peroxidase block. Tissues probed for BrdU were exposed to 4M HCl and 0.1M NaB4O7(Fisher Scientific) to denature DNA. All immunohistochemical reagents were obtained from Vector Laboratories, Inc (Burlingame, Calif.) unless otherwise stated. Tissues were blocked in 3% bovine serum albumin (Gemini, West Sacramento, Calif.)-TBS/10% serum and incubated with a primary antibody 1:50 acetylated tubulin (Cell Signaling, Cambridge, Mass.); 1:200 BrdU (AbCam, Cambridge, Mass.); 1:100 cytokeratin 8 (CK8, Developmental Studies Hybridoma Bank, Iowa City, Iowa); 1:50 p53 (Santa Cruz, Santa Cruz, Calif.); 1:100 PAX8 (Proteintech, Chicago, Ill.); 1:100 pH2AX (Cell Signaling); or 1:75 PR (Santa Cruz)) overnight at 4°. Tissues were washed in TBS-0.1% Tween and incubated with a secondary antibody (1:200), before being probed with ABC peroxidase standard, followed by detection with 3,3′-diaminobenzidine (DAB) and counterstained with hematoxylin.
Immunohistochemistry images were taken via a Nikon E600 microscope, DXM1200 digital camera and NIS Elements software (Nikon Instruments, Melville, N.Y.). For proliferation analysis, concurrent sections were stained for CK8 and BrdU. BrdU sections were imaged and epithelial cells (CK8 positive) were quantified for proliferation via ImageJ software (NIH, Bethesda, Md.). At least three fimbriae with 200 or more FTE were quantified for each treatment. […] Samples with p53 expression were quantified utilizing adjacent sections stained for the secretory cell marker PAX8 in a qualitative manner as described.

[2] = test system: OVGP1 expression in human fallopian epithelium; assay: OVGP1 immunoblot of cultured fallopian epithelium lysate; type: cell-based
Procedure: Human fallopian tissue was obtained from routine hysterectomies from women in their reproductive years (ages range from 26 to 50 years old) and who had not undergone exogenous hormonal treatment for at least three months prior to surgery. Informed consent was obtained from each patient and approval granted by the ethics committee of the Northwestern University. Human fallopian tissue was kept in the DMEM/F12 medium with 10% FBS on ice and processed within 24 hours. The tissue was washed with warm PBS solution two times before being transferred into warm dissection medium (Liebowitz 15 with 0.5% P/S and 10% FBS). After cleaning connective tissue from outside of the fallopian tissue, the fallopian tube was cut open and the inner epithelia layer was mechanically dissected using forceps. […] Tissue was cultured on 0.4 μm pore Millicell inserts (PICM03050, EMD Millipore Co, Billerica, Mass., USA) twelve-well plates with culture medium in a 37° C. and 5% CO2 incubator. Estrogen (E2) and progesterone (P4) used in tissue culture experiments were purchased from Sigma (St. Louis, Mo.).
Cultured human fallopian epithelia layers were homogenized with a minipestle in ice-cold lysis buffer (20 mM Tris-HCl, pH 8.0, 137 mM NaCl, 10% glycerol, 1% NP-40, 2 mM EDTA). Lysate normalized for protein content was loaded into NuPAGE 4-12% gradient Bis-Tris precast SDS-PAGE gels and transferred to a nitrocellulose membrane (Life Technologies, Carlsbad, Calif., USA). Blots were probed by polyclonal anti-OVGP1 antibody (LsBio, Cambridge, Mass.) overnight in 4° C. followed by anti-rabbit secondary antibody conjugated to horseradish peroxidase (Zymed, San Francisco, Calif.). Proteins were detected by ECL primer (GE HealthCare Life Sciences, Pittsburgh, Pa.) and exposed to X-ray film (Kodak, Rochester, N.Y.). The same blot was stripped using stripping buffer (Thermo Scientific, Hanover Park, Ill.) and re-probed with monoclonal anti-α-tubulin (Sigma, St. Louis, Mo.) followed by an anti-mouse secondary antibody conjugated to horseradish peroxidase. NIH ImageJ Imaging Software was used to quantify the density of western blot bands. Conditioned medium from fallopian epithelia cultures was collected and probed via western blot analysis using a polyclonal anti-hIGF1 antibody (abcam, Cambridge, Mass.). The blot was detected by the same method described above.

C[C@]12CC[C@@H]3c4ccc(O)cc4CC[C@H]3[C@@H]1CC[C@@H]2O [E2, estradiol]
IL8 increase compared to vehicle control (IL8): 22%±13%
FTE proliferation (percentage of total FTE cells, BrdU) ([1]; 2 days in culture): 5.2±2.3%
FTE proliferation (percentage of total FTE cells, BrdU) ([1]; 7 days in culture): 2.4±0.5%
OVGP1 expression in the fallopian lysate ([2]; 7 days culture, P4 added to E2): induction
OVGP1 expression ([2]; 28 days stepwise E2 and P4 treatment, P4 in the presence of E2): stimulated
